Test results published in US8119750B2, “Explosion taming surfactants for the production of perfluoropolymers” (3M Innovative Properties Company, priority 2006, dated 2012).
Marks after values point to notes of the source that are not given here.

Assay: Determination of bio-accumulation: urinary clearance pharmacokinetic study in rats
Settings: male Sprague Dawley rats, 73 micro Moles per kg oral gavage, urine by fluorine NMR, exponential least squares curve fitting
Procedure: The perfluorinated and partially fluorinated carboxylates were evaluated for urinary clearance using a pharmacokinetic study in rats. The goal was to measure the total amount of parent compound eliminated via urinary output and estimate the rate of elimination.
The study utilized male Sprague Dawley rats, 6 to 8 weeks of age, and approximately 200 to 250 g body weight at study onset. The test compounds of table 2 were administered at a dose of 73 micro Moles per kg body weight in rats (N=3 animals per tested compound). All test compounds were prepared in sterile deionized water and given to rats via oral gavage. After test compounds administration, the rats were housed individually in metabolism cages for urine collection: 0 to 6 hours, 6 to 24 hours, 24 to 48 hours and 72 to 96 hours. Animals were observed throughout the study for clinical signs of toxicity. Gross necropsy was performed at the termination of each study (96 hours post-dose) with sera and liver samples being retained from each animal.
The concentration of the parent compound or metabolites thereof were quantitatively measured via fluorine NMR on each urine sample for each animal at each time point based on internally added standards.

Row | SMILES | T ½ (h) (renal half-life)
1 | N.O=C(O)C(F)(F)C(F)OC(F)(F)C(F)(F)C(F)(F)OC(F)(F)F (stereo not drawn) [Compound 1, CF3—O—CF2—CF2—CF2—O—CHF—CF2—COONH4] | 12 h
2 | N.O=C(O)C(F)(F)C(F)OC(F)(F)C(F)(F)C(F)(F)F (stereo not drawn) [Compound 3, C3F7—O—CFH—CF2COONH4] | 11 h
3 | N.O=C(O)C(F)(F)C(F)(F)C(F)(F)C(F)(F)C(F)(F)C(F)(F)C(F)(F)F [Compound C-1, C7F15COONH4, reference compound] | ~550 h

Next, values leading:

Row | T ½ (h) (renal half-life) | SMILES
4 | 11 h | N.O=C(O)C(F)OC(F)(F)C(F)(F)C(F)(F)OC(F)(F)F (stereo not drawn) [Compound 2, CF3—O—CF2—CF2—CF2—O—CHF—COONH4]
5 | 24 h | N.O=C(O)C(F)(F)C(F)(F)C(F)(F)C(F)(F)C(F)(F)OC(F)C(F)(F)F (stereo not drawn) [Compound 4, CF3—CFH—O—(CF2)5—COONH4]
6 | 8 h | N.O=C(O)C(F)(F)C(F)(F)C(F)(F)OC(F)C(F)(F)F (stereo not drawn) [Compound 5, CF3—CFH—O—(CF2)3—COONH4]
7 | 10 h | N.O=C(O)C(F)(F)OC(F)(F)C(F)(F)C(F)(F)OC(F)(F)F [Compound C-2, CF3—O—(CF2)3—O—CF2—COONH4, reference compound]
8 | 31 h | N.O=C(O)C(F)(F)C(F)(F)OC(F)(F)C(F)(F)C(F)(F)C(F)(F)F [Compound C-3, C4F9—O—CF2—CF2—COONH4, reference compound]

Same assay, conditions: male Sprague Dawley rats, 73 micro Moles per kg oral gavage; no parent compound observed in the urine

Row | T ½ (h) (renal half-life), based on elimination of the major metabolite C3F7—O—CHFCOO− | SMILES
9 | 13* h | N.O=C(O)COC(F)(F)C(F)OC(F)(F)C(F)(F)C(F)(F)F (stereo not drawn) [Compound 6, C3F7—O—CFH—CF2—O—CH2—COONH4]
